# Results from patent US7632814B2, “HYD1 peptides as anti-cancer agents” (University of South Florida, priority 2006, dated 2009).
# Where no end group is shown, it is not given here. [ ]: non-standard residue; d: D form.
# How the values were obtained:
# Type in all cases: cell-based
# H929 cells [1] = assay: Cell adhesion to fibronectin (crystal violet staining); settings: varying concentrations, 30 minutes pre-incubation, 2 hours adhesion
# Experimental: FIGS. 30A and 30B are graphs showing that HYD1 but not the scrambled derivative HYD1S inhibited cell adhesion of both 8226 and H929 cells to FN. Varying concentrations of either HYD1, HYD1S, or a 1:100 dilution of either α4β1 or α5β1 integrin functional blocking antibodies was added to either (FIG. 30A) 8226 cell or (FIG. 30B) H929 cells for 30 minutes prior to adding cells to either FN or BSA coated wells. Cells were allowed to adhere for 2 hours and adherent cells were measured by crystal violet staining at 540 nm. Shown is the mean and standard deviation of a representative experiment performed in quadruplicate. Three independent experiments were performed and similar results were obtained.
# Quantification of cell adhesion to fibronectin. Briefly, 8226 or H929 myeloma cells were pre-incubated with varying concentrations of either HYD1 or the scrambled peptide (HYD1S) for 30 minutes prior to allowing cells to attach to FN for two hours. Cell adhesion was detected by crystal violet staining as previously described (Damiano J S et al. Blood, 1999; 93:1658-1667; Hazlehurst L A et al. Oncogene, 2000; 19:4319-4327).
# caspase 3 = assay: Caspase 3 activity in H929 cells (fluorescent substrate); settings: 6 and 24 hrs, relative to treatment with melphalan
# Experimental: Cells were treated for 6 hours (FIG. 21A) or 24 hours (FIG. 21B) and caspase 3 activity was measured using a fluorescent substrate. Shown is a representative experiment performed in triplicate. The experiment was repeated twice and similar results were obtained.
# Detection of Apoptosis. A flow cytometric assay measuring Annexin V/PI staining was used to measure apoptotic cells following 24 hours of peptide exposure as previously described (Damiano J S et al. Blood, 1999; 93:1658-1667). The assay was performed in triplicate and 3 independent experiments were performed. Caspase 3 and 8 activity was measured at 6 and 24 hrs post peptide treatment per manufactures' instructions (BD Biosciences, San Jose, Calif.). The caspase assays were performed in triplicate and repeated twice.
# 8226 cells = assay: HS-5 co-culture (SF+A) model of drug resistance, melphalan apoptosis
# Experimental: (§1) Co-culture model. HS-5/GFP cells were plated at a density of 500,000 cells per ml and incubated overnight. Myeloma cells were incubated with vehicle control (water), 50 μg/ml HYD1 or 50 μg/ml HYD1S 30 minutes prior to the addition of myeloma cells (400,000 cell/ml) to either control plates or plates containing HS-5 cells. Myeloma cells were incubated with HS-5 cells for three hours prior to the addition of melphalan. Apoptotic cells were measured in GFP negative myeloma cells, by annexin PE staining and FACS analysis (n=9). ANOVO was performed to determine significance between conditions.
# (§2) Briefly, 8226 myeloma cells were pre-incubated with varying concentrations of either HYD1 or the scrambled HYD1S peptide for 30 minutes prior to allowing cells to attach to FN for two hours. Following two hours of cell adhesion, the amount of cells adherent to FN was measured. The next objective was to determine whether treatment of tumor cells with HYD1 results in potentiation of melphalan induced cell death in the BMS co-culture model (SF+A). […] For these studies, the HYD1 and HYD1S were pre-incubated with the […] for 30 minutes, and then cells and culture media containing the peptide were placed into the S-5 culture dish. Myeloma cells were co-cultured for an additional 3 hours with HS-5 cells before the addition of melphalan. Twenty-four hours after drug treatment, apoptosis was measured by Annexin V-PE positive events by FACS analysis. The HS-5 cells constitutively express GFP and thus it is possible to gate GFP negative cells only (myeloma cells) for the apoptotic analysis.
# H929 cells [2] = assay: as above
# Experimental: as §1, §2
# ERK = assay: Activation of ERK signaling
# Experimental: HYD1, when introduced as a soluble ligand, completely blocks random hapotaxis on laminin 322 and enhanced cellular signals are coupled with the loss of cell motility. […] Using this endpoint as an indicator of HYD1 bioactivity, the truncated and alanine-substituted variants of HYD1 were tested for their ability to activate ERK. Activation of ERK at 10 minutes post-treatment was conserved with alanine-substitution only at the N-terminal lysine and C-terminal glycine (FIG. 16A-1). […] Taken together (FIG. 16C-2), the results (FIGS. 16A-1, 16A-2, 16B, 16C-1) indicate that activation of ERK signaling required ikmviswxx (SEQ ID NO:48).
substance,measurement,setting,value
kikmviswkg ([dK][dI][dK][dM][dV][dI][dS][dW][dK]G) [HYD1],blocking of adhesion of H929 cells to the extracellular matrix FN,H929 cells [1],blocks adhesion of 8226 and H929 cells to the extracellular matrix FN in a dose dependent manner
same,caspase 3 activity,caspase 3,minimal caspase 3 activity
same,resistance to melphalan associated with the bone marrow stroma model,8226 cells; 8226 cells,completely reversed resistance
same,potentiation of melphalan-induced apoptosis in the SF+A model,"8226 cells; 8226 cells co-cultured with HS-5, 50 μg/ml peptide, with melphalan",potentiates melphalan-induced apoptosis
same,resistance to melphalan associated with HS-5 co-culture,H929 cells [2]; H929 cells,reduced resistance
same,potentiation of melphalan-induced apoptosis in the SF+A model,"H929 cells [2]; H929 cells co-cultured with HS-5, 50 μg/ml peptide, with melphalan",potentiates melphalan-induced apoptosis
same,time of maximal activation of ERK post-treatment,ERK,10 min
same,activation of ERK,ERK; 10 minutes post-treatment,induces activation of ERK
